The subject of data set [1] is Pseudomonas aeruginosa. As to the method:
(§1) The antimicrobial activity of synthetic piscidin 1, piscidin 2 and piscidin 3 (P1, P2 and P3) was tested against a variety of different bacteria.

The test system of data set [2] is Aeromonas hydrophilia. It is filed as cell-based. As to the method:
as §1

For data set [3], the system named is Enterococcus gallinarum. It is filed as cell-based. Here is the method:
as §1

Data set [4] relates to Escherichia coli. Here is the method: as §1
For data set [5], the system named is Staphylococcus aureus. Here is the method:
as §1

Data set [6] relates to Enterococcus faecium. It is filed as cell-based. Particulars: Case 00-1437, vancomycin resistant, vanA; MHB. As to the method:
as §1

Data set [7] relates to Staphylococcus epidermidis. It is filed as cell-based. Here is the method:
as §1

For data set [8], the system named is Streptococcus iniae. It is filed as cell-based. Here is the method:
as §1

Data set [9] relates to bacteria. Briefly: Antibacterial activity of synthetic SEQ ID NO: 4 sequence. The conditions noted are these: synthetic sequence with tryptophan as X. It is filed as cell-based. The source says: [SEQ ID NO: 4], where X is tryptophan or beta-hydroxytryptophan. It is tentatively believed that beta-hydroxytryptophan is present as X in the natural sequence.
Data set [10] has as its system human pathogens. In words: Activity of dimeric peptide against human pathogens. It is filed as cell-based. The source says:
(§2) where CC is linked via a disulfide bridge.

The format of data set [11] is cell-based.
From the text: as §2

Values after ≈ are worked out from the molar mass of the structure shown. Residues, ends and D or L forms follow the SMILES beside them. No end group written: not given here.

Regarding `CC[C@H](C)[C@H](NC(=O)CNC(=O)[C@H](CCCNC(=N)N)NC(=O)[C@H](Cc1ccccc1)NC(=O)[C@@H](NC(=O)[C@H](Cc1c[nH]cn1)NC(=O)[C@H](Cc1c[nH]cn1)NC(=O)[C@H](Cc1ccccc1)NC(=O)[C@@H](N)Cc1ccccc1)[C@@H](C)CC)C(=O)N[C@H](C(=O)N[C@@H](Cc1c[nH]cn1)C(=O)N[C@H](C(=O)NCC(=O)N[C@@H](CCCCN)C(=O)N[C@H](C(=O)N[C@H](C(=O)N[C@@H](Cc1c[nH]cn1)C(=O)N[C@@H](CCCNC(=N)N)C(=O)N[C@@H](CC(C)C)C(=O)N[C@H](C(=O)N[C@H](C(=O)NCC(N)=O)[C@@H](C)O)C(C)C)[C@@H](C)CC)[C@@H](C)O)C(C)C)C(C)C` [P1] (H-FFHHIFRGIVHVGKTIHRLVTG-NH2; N-terminus assumed), the results for the MBC in data set [1], in data set [2] and in data set [3] were 12.5 µg/mL (≈ 4.86 µM), 0.79 to 1.57 µg/mL and 12.5 µg/mL (≈ 4.86 µM), respectively. Further, the values for the MIC in data set [1], in [2] and in data set [3] were 12.5 µg/mL (≈ 4.86 µM), 0.79 to 1.57 µg/mL and 12.5 µg/mL (≈ 4.86 µM), respectively.

As to `CC[C@H](C)[C@H](NC(=O)CNC(=O)[C@H](CCCNC(=N)N)NC(=O)[C@H](Cc1ccccc1)NC(=O)[C@@H](NC(=O)[C@H](Cc1c[nH]cn1)NC(=O)[C@H](Cc1c[nH]cn1)NC(=O)[C@@H](NC(=O)[C@@H](N)Cc1ccccc1)[C@@H](C)CC)[C@@H](C)CC)C(=O)N[C@H](C(=O)N[C@@H](Cc1c[nH]cn1)C(=O)N[C@@H](C)C(=O)NCC(=O)N[C@@H](CCCNC(=N)N)C(=O)N[C@@H](CO)C(=O)N[C@H](C(=O)NCC(=O)N[C@@H](CCCNC(=N)N)C(=O)N[C@@H](Cc1ccccc1)C(=O)N[C@@H](CC(C)C)C(=O)N[C@H](C(=O)NCC(N)=O)[C@@H](C)O)[C@@H](C)CC)C(C)C` [P3] (H-FIHHIFRGIVHAGRSIGRFLTG-NH2; N-terminus assumed), the MBC (commonly the smallest concentration meeting the test's criterion for killing) in [4] was 3.13 µg/mL (≈ 1.26 µM); in data set [1] it was 25 µg/mL (≈ 10 µM); in data set [5] it was 3.13 µg/mL (≈ 1.26 µM); in data set [2], 1.57 to 3.13 µg/mL; in [3], 50 µg/mL (≈ 20.1 µM); in data set [8] it was 3.13 µg/mL (≈ 1.26 µM). For the same compound, the MIC – broadly, the lowest concentration found to suppress growth – in [4] is 3.13 µg/mL (≈ 1.26 µM); in data set [1] it was 25 µg/mL (≈ 10 µM); in [5] it was 3.13 µg/mL (≈ 1.26 µM); in data set [2], 1.57 to 3.13 µg/mL; in data set [6], 3.13 to 6.25 µg/mL; in data set [3], 50 µg/mL (≈ 20.1 µM). Moreover, the MIC in data set [7] and in data set [8] was 3.13 µg/mL (≈ 1.26 µM) throughout.

“FFRHLFRGAKAIFRGARQGXRAHKVVSRYRNRDVPETDNNQEEP [SEQ ID NO: 4, Endobiotic Family 2 peptide, about 5329 Da, X is tryptophan or beta-hydroxytryptophan]”: the antibacterial activity result in data set [9] was “potent antibacterial activity”.

Turning to “HVIGRFIHHFFCCFFHHIFRGIVH (cysteine pairing not given here; also: dimer) [SEQ ID NO: 6]”, the “activity against several human pathogens” value in data set [10] was “active against several human pathogens”. For the same compound, in data set [11], the hemolytic activity entry was “no detectable hemolytic activity”.

(Values after patent publication US20030105281A1, “Antimicrobial peptides isolated from mast cells” (priority 2000, published 2003).)
